Measurements published in patent US6313116A, “Benzothiazole compounds and their therapeutic use” (Darwin Discovery, Ltd., priority 2000, dated 2001).

Target: phosphodiesterase IV
Assay: phosphodiesterase IV inhibitory activity (standard assay procedures)
Format: biochemical
Conditions: assay not given
From the text: The assays used to confirm the phosphodiesterase IV inhibitory activity of compounds of formula (I) are standard assay procedures as disclosed by Schilling et al, Anal. Biochem. 216:154 (1994), Thompson and Strada, Adv. Cycl. Nucl. Res. 8:119 (1979) and Gristwood and Owen, Br. J. Pharmacol. 87:91P (1986).

IC50: 17 nM
SMILES: CCc1nc2c(OC)ccc(C(=O)Nc3ccnn3C)c2s1 [Example 5, 2-Ethyl-4-methoxybenzothiazole-7-carboxylic acid (2-methyl-2H-pyrazol-3-yl)amide]
